# What was measured:
# [1] = tested on: German cockroach (Blattella germanica); experiment: Choice test arena repellency bioassay, adult male German cockroach, 300-second test; assay type: in vivo; conditions: for Mean Treated / Mean Untreated: 300-second test; for % repellency: (untreated − treated/300)*100
# Experimental: Test Procedure. Repellency bioassays were conducted to assess the repellent properties of compositions containing catnip steam distillate (nepetalactone), Z,E-nepetalactone, E,Z-nepetalactone and DEET against cockroaches. Certified acetone and certified hexane were also tested in order to evaluate solvent effects. (DEET was dissolved in acetone, because DEET is insoluble in hexane. The tested compounds were dissolved in hexane because hexane was the solvent used to extract these compounds from the distillate). One Whatman 125-mm round filter paper was cut in half. One side was treated with one (1) ml of the test compound and the other side was treated with one (1) ml of solvent. The papers were allowed to dry in a fume hood for approximately two (2) minutes before being placed in a 150-mm Petri dish arena. The relative position of the treated side (i.e., to the right or left) of the dish was randomized using a random number table. […] The hole was stopped using a small piece of tape to prevent the insect from escaping. One adult male German cockroach (Blattella germanica) was selected from the colony and dropped into the pre-formed hole in the Petri dish lid. […] Ten (10) replications were performed for each test compound. Results. Using mean values and their related Standard Error of the Mean values (SEM), repellency of the selected samples was determined as shown in Table 2. Significance due to concentration was determined using ANOVA. […] Comparisons between test compounds were made using a two-tailed paired t-test (“paired t-test”) which indicates “differences” as is known in the art and shown in Table 4 (as compared with a “one-tailed” test, which indicates “greater or less than”). Testing Procedure. The same procedure described in Example 1 was used.
# [2] = tested on: antennectomized male German cockroaches; experiment: Choice test arena behavioral assay of antennectomized male cockroaches; assay type: in vivo, Blattella germanica; conditions: Annectomized male cockroaches
# Experimental: Testing Procedure. Male cockroaches were antennectomized by using a razor blade to remove the antennae as close to the head as possible. The cockroaches were allowed to recover from the procedure for 24 hours before being exposed to the test compounds in the bioassay described in Example 1. Results.
# [3] = tested on: German cockroach, Blattella germanica; experiment: Choice-test arena bioassay (contact irritancy), German cockroach, Example 6; assay type: in vivo; conditions: 300-second period
# Experimental: (§1) A choice-test arena was used to assess irritancy of test solutions to two common household insect pests, the German cockroach (Blattella germanica) and the house fly (Musca domestica). Catnip essential oil obtained by steam distillation of catnip obtained from the same source as described in the above examples, and the two major components of its essential oil, Z,E-nepetalactone and E,Z-nepetalactone (isolated from the essential oil by preparative TLC), were evaluated for behavioral effects of contact irritancy to the German cockroach. The TLC was performed as described in McElvain, S. M. et al., J. Am. Chem. Soc., 1941, 63, 1558-1563. Catnip essential oil and its major constituent Z,E-nepetalactone were tested against the house fly. N,N-diethyl-m-toluamide (DEET) (Aldrich, St. Louis, Mo.) served as a positive control for the choice-test arena assay and as a point of comparison for measuring insect behavioral effects that result from current commercial insect repellents. Test solutions ranging from 10% to 0.1% (vol/vol) active ingredient (a.i.) were made up in acetone and then delivered on to a filter paper for solvent evaporation. […] Choice-test are for German cockroaches and house flies were constructed from plastic Petri dishes. One-half of a 12.5-cm dia. filter paper was treated with 1 ml test solution, and the other was treated with 1 ml of only solvent (control). Both halves of the filter paper were placed in the choice-test arena. Position of the treated filter paper was randomized using a random-number table.
# (§2) Individual German cockroaches or house flies were placed in each choice-test arena through a centered hole in the lid of the Petri dish and evaluated for a 300-second period. The amount of time the insect spent on the treated and untreated filter papers were recorded and used to calculate a percentage repellency value: Percentage Repellency=((Time on Untreated-Time on Treated)/300)×100
# (§3) Ten replicates of each treatment solution were tested for both German cockroaches and house flies. Details of this assay design and some results have previously been described.
# [4] = tested on: yellow fever mosquitoes, Aedes aegypti; experiment: Static-air repellency chamber, spatial and contact repellency, adult female yellow fever mosquitoes; assay type: in vivo; conditions: application rate 78.6 μg/cm^2
# Experimental: Test Equipment. In this testing, a static air repellency chamber was used. The apparatus consisted of a 9×60-cm section of glass tubing with a 2-cm hole drilled at the midpoint along the length for central introduction of the insects. All of the testing was conducted in an environmental chamber at ambient temperatures.
# Test Methods. The data for spatial repellency was collected at 15 minutes after the introduction of female yellow fever mosquitoes into a static air repellency chamber. Data for the contact repellency was collected after three hours. The concentrations used in the tests are 1% solution (1 ml of it on a 9-cm diameter filter paper). One (1) ml of a 1% (wt/vol) solution of repellent substance containing hexane as a carrier was pipetted onto a 9-cm diameter filter paper results in a concentration of 157 μg/cm^2. The solution contained the desired mass of compound to be tested added to the desired volume of hexane, e.g., for a 1% solution of catnip essential oil, […] was added to 100 ml of hexane.
# One milliliter of the solution was applied to one half of a 9-cm diameter round filter paper with an area of 63.6 cm^2 and then allowed to dry before testing. […] Treated filter papers were placed inside the lids of 9-cm glass petri dishes, and placed over the ends of the glass tube. The position of the treated side, to the right or to the left, was selected by using a random-number table. Approximately fifteen unmated adult female mosquitoes were anaesthetized with CO2 and then introduced to the 9×60-cm glass cylinder through the centered 2-cm hole. Timing began 2 minutes after mosquito introduction, and mosquito distribution inside the static-air choice-test apparatus was observed over a 15-minute period for each treatment to determine spatial repellency. Basically the number of mosquitoes in the non-treated half were considered to be repelled and were counted. Percent repellency was considered to be: (Number of Individuals on Untreated Half−Number of Individuals on Treated Half)/15)×100. Contact repellency was defined in this assay as 100% avoidance of the treated filter paper-after three hours. The experimental design was a completely randomized design using six replications of each treatment.
# All test methods were the same as described in Example 7, except spatial repellency over a longer period.
# Test Methods. […] Also only three replications were used instead of six.
# [5] = tested on: house fly, Musca domestica; experiment: Choice-test arena bioassay (contact irritancy), house fly; assay type: in vivo; conditions: 300-second period
# Experimental: as §1, §2, §3
# [6] = 0.1% test solution vs solvent-treated half, male
# [7] = 0.5% test solution vs solvent-treated half, male
# [8] = dose 16 μg/cm^2, male B. germanica, in 300 seconds
# [9] = dose 80 μg/cm^2, male B. germanica, in 300 seconds
# [10] = 1% test solution vs solvent-treated half, male
# [11] = 5% test solution vs solvent-treated half, male
structure (smiles),measurement,setting,value
"c1ccc2ccccc2c1 [Naphthalene, reference compound]",Mean Treated,[1]; amount used 1% solution,117 s
same,Mean Untreated,[1]; amount used 1% solution,184 s
same,% repellency,[1]; amount used 1% solution,22%
"CC1=COC(=O)C2[C@@H]1CC[C@@H]2C (stereo partly drawn) [E,Z-Nepetalactone, trans-cis nepetalactone]",Mean Treated,[1]; [6],76.7 s
same,Mean Untreated,[1]; [6],216 s
same,times less time on the treated side as compared with the untreated side,[1]; 0.5%,~8 times
same,Mean Treated,[1]; [7],31.7 s
same,Mean Untreated,[1]; [7],270 s
same,Mean seconds on treated side ± SEM,"[1]; Non-antennectomized male cockroaches, 80 μg/cm^2",31.7 ± 5.2 s
same,% repellency,[1]; dose 16 μg/cm^2,46%
same,Mean seconds on treated side ± SEM,[1]; [8],76.7 ± 13.7 b seconds
same,% repellency,[1]; dose 80 μg/cm^2,79%
same,Mean seconds on treated side ± SEM,[1]; [9],31.7 ± 5.2 c seconds
same,Mean seconds on treated side ± SEM,[2]; 80 μg/cm^2,153 ± 15.2 s
same,Mean seconds on untreated side,[2]; 80 μg/cm^2,149 ± 15.3 s
same,Percentage Repellency ± SEM,[3]; application rate 16 μg/cm^2,46.4 ± 11.0b %
same,Percentage Repellency ± SEM,[3]; application rate 80 μg/cm^2,79.4 ± 3.5c %
"CC(C)=CCc1c2c(c3occ(-c4ccc(O)cc4)c(=O)c3c1O)C=CC(C)(C)O2 [Osajin, osajin]",Mean Treated,[1]; amount used 0.5% solution,117 s
same,Mean Untreated,[1]; amount used 0.5% solution,184 s
same,% repellency,[1]; amount used 0.5% solution,22%
same,Mean Treated,[1]; amount used 1% solution,103 s
same,Mean Untreated,[1]; amount used 1% solution,197 s
same,% repellency,[1]; amount used 1% solution,31%
"CC(C)=CCCC(C)CC=O (stereo not drawn) [Citronellal, citronellal, reference compound]",Average Percentage Repellency Over Time,[4]; 60 min,10%
same,Average Percentage Repellency Over Time,[4]; 120 min,19%
same,Average Percentage Repellency Over Time,[4]; 360 min,1%
same,Average Percentage Repellency Over Time,[4]; Initial,79%
"CC1=CC[C@@]23[C@@H]([C@@H]12)[C@H](C(C)C)CC[C@H]3C [α-Cubebene, alpha-cubebene]",Mean Treated,[1]; amount used 0.1% solution,118 s
same,Mean Untreated,[1]; amount used 0.1% solution,182 s
same,% repellency,[1]; amount used 0.1% solution,21%
same,Mean Treated,[1]; amount used 0.5% solution,99.4 s
same,Mean Untreated,[1]; amount used 0.5% solution,211 s
same,% repellency,[1]; amount used 0.5% solution,36%
CCCCCCOC(=O)CCCCC [Hexyl hexanoate],Mean Treated,[1]; amount used 1% solution,142 s
same,Mean Untreated,[1]; amount used 1% solution,158 s
same,% repellency,[1]; amount used 1% solution,5.2%
"CC1=COC(=O)[C@H]2[C@@H]1CC[C@@H]2C [Z,E-Nepetalactone, cis-trans nepetalactone]",Mean Treated,[1]; [6],127 s
same,Mean Untreated,[1]; [6],176 s
same,Mean Treated,[1]; [7],128 s
same,Mean Untreated,[1]; [7],174 s
same,Mean Treated,[1]; [10],65.4 s
same,Mean Untreated,[1]; [10],236 s
same,times less time on the treated side as compared with the untreated side,[1]; 5%,~5 times
same,Mean Treated,[1]; [11],47.3 s
same,Mean Untreated,[1]; [11],252 s
same,Mean seconds on treated side ± SEM,"[1]; Non-antennectomized male cockroaches, 160 μg/cm^2",65.4 ± 11.8 s
same,% repellency,[1]; dose 16 μg/cm^2,16%
same,Mean seconds on treated side ± SEM,[1]; [8],127 ± 11.2 a seconds
same,% repellency,[1]; dose 80 μg/cm^2,15%
same,Mean seconds on treated side ± SEM,[1]; [9],128 ± 10.4 a seconds
same,% repellency,[1]; dose 160 μg/cm^2,57%
same,Mean seconds on treated side ± SEM,"[1]; dose 160 μg/cm^2, male B. germanica, in 300 seconds",65.4 ± 11.8 b seconds
same,% repellency,[1]; dose 800 μg/cm^2,68%
same,Mean seconds on treated side ± SEM,"[1]; dose 800 μg/cm^2, male B. germanica, in 300 seconds",47.3 ± 8.7 b seconds
same,Mean seconds on treated side ± SEM,[2]; 160 μg/cm^2,121 ± 10.6 s
same,Mean seconds on untreated side,[2]; 160 μg/cm^2,180 ± 10.5 s
same,Percentage Repellency,[5]; application rate 80 μg/cm^2,87.3%
same,Percentage Repellency,[5]; application rate 160 μg/cm^2,69.3%
same,Percentage Repellency,[5]; application rate 800 μg/cm^2,96.0%
same,Percentage Repellency ± SEM,[3]; application rate 16 μg/cm^2,16.1 ± 7.4a %
same,Percentage Repellency ± SEM,[3]; application rate 80 μg/cm^2,15.4 ± 6.9a %
same,Percentage Repellency ± SEM,[3]; application rate 160 μg/cm^2,56.8 ± 7.8b %
same,Percentage Repellency ± SEM,[3]; application rate 800 μg/cm^2,68.2 ± 5.7b %
"CC(C)=CCc1c2c(c3occ(-c4ccc(O)c(O)c4)c(=O)c3c1O)C=CC(C)(C)O2 [Pomiferin, pomiferin]",Mean Treated,[1]; amount used 1% solution,138 s
same,Mean Untreated,[1]; amount used 1% solution,163 s
same,% repellency,[1]; amount used 1% solution,8.3%
